Results on two compounds are retold here after patent US20230145868A1, “UREA INHIBITORS OF MICRO-RNA” (Board of Regents, The University of Texas System, priority 2020, published 2023).

The subject of test [1] is AsPC1 cell line. Kind of test: Cell proliferation assay (WST-8 or MTS), AsPC1. It counts as cell-based, human. On the procedure: IC50 dose-response curves were determined using the cell proliferation assay system. Briefly, 5,000 or 10,000 cells of each cell line were plated in 96-well microculture plates in replicates of either 4 or 6. When cells became adherent, either 5 or 10 sequentially decreasing doses of the small molecule miRNA inhibitor were diluted into new media and added to individual wells. After either 24 or 48 hours, of a tetrazolium salt such as MTS, MTT, or WST-8 was added to each well at the same time of day as treatment and incubated for either 2 or 3 h at 37° C. The OD, measuring at the appropriate wavelength for the dye, was read at on a microplate spectrophotometer.
Cell proliferation is determined using a colorimetric assay. A tetrazolium salt such as MTS, MTT, or WST-8 is reduced by dehydrogenase activities in cells to give a formazan dye, which is soluble in the tissue culture media. The amount of the formazan dye (generated by the activities of dehydrogenases in cells, and directly proportional to the number of living cells) is measured after 3 h of incubation. The OD is read at 450 nm on a microplate spectrophotometer and growth values (%) are calculated as (OD treated cells/OD untreated cells)×100. The experiments are performed in triplicate. […] The OD is read at 450/550 nm on a microplate spectrophotometer, after one to seven days of the treatment. […]
Background: Formazan colour is commonly taken as a measure of viable cells.

Test [2] deals with miR-10b. Kind of test: Luciferase reporter assay of miR-10b inhibition, MCF7 cells. The test is classed as cell-based. The following applies: Homo sapiens, MCF7, 48 h. From the text:
To identify miR-10b inhibitors, a luciferase reporter system was designed with complementary oligonucleotides for miR-10b.This luciferase reporter would repress Renilla luciferase signal in the presence of a functional mature miR-10b. However, in the presence of a small molecule that can inhibit mature miR-10b expression or affect its downstream function, the luciferase expression is restored again.
The PsiCHECK™-2 luciferase reporter vector was acquired from Promega™, Complementary oligonucleotides for hsa-miR-10b were designed based on the mature miRNA sequence and obtained from Thermo Fisher Scientific. In the design of the microRNA target sequence, several base pairs were added to have two different restriction sites recognizable by the enzyme SgfI at one side, and PmeI on the other (present in the vector as well). In addition, the insert was designed with a restriction site for SacI enzyme in order to have an additional site to digest the vector when monitoring colonies for the presence/absence of the insert. The designed oligonucleotides were annealed as follows: Complementary strands were mixed at a 1:1 molar ratio in a micro centrifuge tube. The mixture was diluted to a final concentration of 1 pmol/μl with a buffer solution of 10 mM Tris, 1 mM EDTA, and 50 mM NaCl (pH 8.0). Mixes were incubated at 95° C. for 5 min, and then the heat was reduced gradually for 70 min, until reaching 4° C. The annealed oligonucleotides were digested along with the PsiCHECK™2 vector with SgfI and PmeI and ligated at the 3′-UTR (downstream) of the Renilla luciferase reporter gene in the PsiCHECK™-2vector. Insert sequences were further confirmed in two ways: enzymatic digestion and sequencing.
MCF7 cells were seeded 24 h prior to transfection in 96 well plates (2.0×10^4 cells/well). For testing the sensitivity of the assay, antagomiRs and pre-miRs against miR-10b were used at a final concentration of 100 nM. For testing small molecule miRNA inhibitors, the compounds of interest were added to a final concentration of 10 μM. The assay was done in MCF7 or MDA-MB-231 cells at approximately 60% confluence using Lipofectamine in Opti-Mem media with the final vector concentration of 250 ng/mL. All transfections were performed in triplicate for statistical analysis. The cells were incubated at 37° C. for 6 h, followed by replacement of the transfected media with fresh media. After 48 h incubation, the media was removed, and cells were lysed and assayed with a Dual Luciferase Assay Kit (Promega) using a Vi-Tech luminometer. The ratio of Renilla to firefly luciferase expression was calculated for each of the triplicates.
A general note: In a reporter assay the amount or activity of a reporter protein is the signal.

Test [3] concerns mature miR-10b. Kind of test: RT-qPCR of mature miR-10b. It counts as cell-based, human. To be noted: normalized to U6, vs DMSO. Here is the method: Potential small molecule miRNA inhibitors were tested in MCF7 cells, a metastatic cell line (MM231) and an HCC cell line (HepG2) through RT-qPCR. Cells were seeded in 12-well plates 24 h before treatments at a confluence of 50-60%. They were treated at a concentration of 10 μM linifanib (positive control) or DMSO (negative control), and RNA was collected after 24 and 48 h. MicroRNA expression was tested using TaqMan microRNA assay (Applied Biosystems). The cDNA was synthesized using TaqMan Reverse Transcription Reagents kit (Applied Biosystems) and employed for quantitative RT-qPCR analysis together with TaqMan probes and SsoFastSupermix (Bio-rad). Primers and probes were purchased for hsa-miR-10b, hsa-pri-miR-10b, U6, and U48 snRNA that was used as an internal control.
To detect the levels of the precursor sequences, cDNA was synthesized using the SuperScript III cDNA kit (Invitrogen). Diluted cDNA was used for RT-qPCR analysis using iQ SYBR Green Supermix (Bio-Rad) with primers designed by in-house. Experiments were performed in triplicate; treated samples were compared to the DMSO-treated controls and normalized to the internal control. Relative expression levels were calculated using the 2-ΔCt method.
On the technique in general: Quantitative PCR measures a nucleic acid by following its amplification.

Setting [4] is: Table 6, MCF7, second biological replicant, 10 μM compound, mean of triplicate, read-out: n-fold increase in luciferase expression, Mean.
The mark [5] stands for this setting: Table 6, MCF7, second biological replicant, 10 μM compound, replicate #1, read-out: n-fold increase in luciferase expression, #1.
The mark [6] stands for this setting: Table 6, MCF7, second biological replicant, 10 μM compound, replicate #2, read-out: n-fold increase in luciferase expression, #2.
[7] abbreviates: Table 6, MCF7, second biological replicant, 10 μM compound, replicate #3, read-out: n-fold increase in luciferase expression, #3.

Where two headings read alike, the source gives them in different places.

Regarding `Cc1ccc(F)c(NC(=O)Nc2ccc(-c3cncnc3)cc2)c1` [Example 2, 1-(2-fluoro-5-methylphenyl)-3-(4-(pyrimidin-5-yl)phenyl)urea], the proliferation result in test [1] (10 μM, vs DMSO) is “reduced proliferation”. Also, the fold induction at 10 µM came out at 2.19 in test [2] (Table 3, MCF7, 10 μM compound, vs negative control (DMSO), mean of triplicate, read-out: n-fold increase in luciferase expression, Mean); 2.75 in test [2] (Table 3, MCF7, 10 μM compound, vs negative control (DMSO), replicate #1, read-out: n-fold increase in luciferase expression, #1); 1.78 in test [2] (Table 3, MCF7, 10 μM compound, vs negative control (DMSO), replicate #2, read-out: n-fold increase in luciferase expression, #2); 2.05 in test [2] (Table 3, MCF7, 10 μM compound, vs negative control (DMSO), replicate #3, read-out: n-fold increase in luciferase expression, #3); 2.44 in test [2] (setting [4]); 2.51 in test [2] (setting [5]). Moreover, the fold induction at 10 µM in test [2] (setting [6]) stood at 2.84; in test [2] (setting [7]) it was 1.96. The entries for the “level of mature miR-10b” value in test [3] (AGS gastric cell line) and in test [3] (AsPC1 pancreatic cell line) were “reduce the level of mature miR-10b” and “reduces the level of mature miR-10b”, respectively.

Consider `Cc1ccc(F)c(NC(=O)Nc2ccc(-c3cccc4cn[nH]c34)cc2)c1` [Example 4, 1-(4-(1H-indazol-7-yl)phenyl)-3-(2-fluoro-5-methylphenyl)urea], for which, in test [1] (5 and 10 μM, beginning at 48 h of treatment), the “proliferation (MTS), every 24 h over 96 h” value is on record as “significant difference in proliferation”. Besides, the fold induction at 10 µM in test [2] (Table 4, MCF7, 10 μM compound, vs negative control (DMSO), mean of triplicate, read-out: n-fold increase in luciferase expression, Mean) worked out at 2.71; in test [2] (Table 4, MCF7, 10 μM compound, vs negative control (DMSO), replicate #1, read-out: n-fold increase in luciferase expression, #1) it was 1.95; in test [2] (Table 4, MCF7, 10 μM compound, vs negative control (DMSO), replicate #2, read-out: n-fold increase in luciferase expression, #2), 3.8; in test [2] (Table 4, MCF7, 10 μM compound, vs negative control (DMSO), replicate #3, read-out: n-fold increase in luciferase expression, #3), 2.39; in test [2] (setting [4]), 2.54; in test [2] (setting [5]) it was 4.28. For the same compound, the fold induction at 10 µM in test [2] (setting [6]) came out at 2.09; in test [2] (setting [7]) it was 1.24. The “level of mature miR-10b” value in test [3] (AGS gastric cell line) and in test [3] (AsPC1 pancreatic cell line) was “reduces the level of mature miR-10b” each time.
